Reference: PubChem BioAssay (NCI)
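How tested: cells in 96-well plates exposed to compound for 48 hours at five concentrations. GI50 is the concentration that inhibits growth by half. TGI: total growth inhibition.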

Key:
Assay in all cases: NCI-60 cell line screen, 48 h
NCI-H460 lung = test system: NCI-H460 lung
SF-268 CNS = test system: SF-268 CNS
HL-60(TB) leukemia = test system: HL-60(TB) leukemia
SR leukemia = test system: SR leukemia
SK-MEL-5 melanoma = test system: SK-MEL-5 melanoma
OVCAR-4 ovarian = test system: OVCAR-4 ovarian
RPMI-8226 leukemia = test system: RPMI-8226 leukemia
MOLT-4 leukemia = test system: MOLT-4 leukemia
UO-31 renal = test system: UO-31 renal
OVCAR-3 ovarian = test system: OVCAR-3 ovarian

| Structure (SMILES) | GI50 (NCI-H460 lung) [µM] | TGI (NCI-H460 lung) [µM] | GI50 (SF-268 CNS) [µM] | TGI (SF-268 CNS) [µM] | GI50 (HL-60(TB) leukemia) [µM] | TGI (HL-60(TB) leukemia) [µM] | GI50 (SR leukemia) [µM] | TGI (SR leukemia) [µM] | GI50 (SK-MEL-5 melanoma) [µM] | TGI (SK-MEL-5 melanoma) [µM] | GI50 (OVCAR-4 ovarian) [µM] | TGI (OVCAR-4 ovarian) [µM] | GI50 (RPMI-8226 leukemia) [µM] | TGI (RPMI-8226 leukemia) [µM] | GI50 (MOLT-4 leukemia) [µM] | TGI (MOLT-4 leukemia) [µM] | GI50 (UO-31 renal) [µM] | TGI (UO-31 renal) [µM] | TGI (OVCAR-3 ovarian) [µM] | GI50 (OVCAR-3 ovarian) [µM] |
| --- | --- | --- | --- | --- | --- | --- | --- | --- | --- | --- | --- | --- | --- | --- | --- | --- | --- | --- | --- | --- |
| [N-]=[N+]=NCCCCCC(=O)OC(C(=O)c1ccccc1)c1cccc(OCC(=O)NCCOCCOCCNC(=O)CCCC[C@@H]2SC[C@@H]3NC(=O)N[C@@H]32)c1 (stereo not given in full) | > 100 | > 100 | > 100 | > 100 | 27.8 | > 100 | 22.6 | 60 | > 100 | > 100 | > 100 | > 100 | 29.3 | > 100 | 43.8 | > 100 | > 100 | > 100 |  |  |
| COc1cc(N(C)C)c(OC)cc1/C=C\c1ccnc2ccccc12 |  | > 10 |  | > 10 |  | 7.99 |  |  |  | 3.13 |  | > 10 |  | 7.32 |  | 8.06 |  | > 10 | > 10 |  |
| COc1ccc2c(=O)cc(C(Cl)(Cl)Cl)oc2c1 | 0.364 | 8.63 | 0.377 | 15.6 | 0.269 | 0.836 | 0.058 | 91.5 | 0.278 | 0.833 | 0.423 | 30.7 | 0.389 | 3.82 | 0.302 | 4.44 | 0.637 | 15.7 |  |  |
| Cc1ccc(NC(=O)CC2Sc3ccccc3NC2=O)c(C)c1 (stereo not given) |  | 32.4 |  | 60.7 |  | 8.35 |  |  |  | 30.9 |  | 48.1 |  | 43.9 |  | 72.9 |  | 34.8 | 28.6 |  |
| O=C(Nc1ccncc1)C(=O)c1cn(S(=O)(=O)c2ccc(Cl)cc2)c2ccccc12 | 11.5 | > 100 | 1.39 | > 100 | 0.401 |  |  |  | 0.443 | 11.9 | 3.89 | > 70.3 | 1.44 | > 100 | 3.63 | > 100 | 9.18 | > 100 | 9.44 | 0.538 |
| Cn1cnc([N+](=O)[O-])c1Sc1nccn1-c1cccc2ccccc12 |  | 73.1 |  | 84.2 |  |  |  | 50.5 |  | > 100 |  | 95.3 |  | 49.9 |  | 43.7 |  | > 100 | 75.2 |  |
| C/C(CC(=O)Nc1ccc(C)c(C)c1)=N\NC(N)=O |  | > 100 |  | > 100 |  | > 100 |  |  |  | > 100 |  |  |  | > 100 |  | > 100 |  | > 100 | > 100 |  |
| COc1ccc2ccccc2c1C1NC(=O)c2ccccc2N1 (stereo not given) |  | 29.6 |  | > 100 |  | 0.877 |  | 1.67 |  | 6.31 |  |  |  | 8.06 |  | 9.2 |  | 71.2 | 1.92 |  |
| CCOC(=O)N1CCC(=O)C(CNC23CC4CC(CC(C4)C2)C3)C1 (stereo not given) |  | > 100 |  | > 100 |  | > 100 |  | 51.6 |  | > 100 |  | 29 |  |  |  | 38.9 |  | > 100 |  |  |
| CN1C(=O)C2C3C=C4c5ccccc5N(c5ccccc5)C4(C2C1=O)[C@H]1C(=O)N(C)C(=O)[C@@H]31 (stereo not given in full) |  | > 100 |  | > 100 |  | > 100 |  | > 100 |  |  |  | > 100 |  | > 100 |  | > 100 |  | > 100 | > 100 |  |
| Cc1cccc(C)c1NC(=O)C1C(=O)N(c2c(C)cccc2C)C(=O)/C1=N\N (stereo not given) |  |  |  | > 100 |  | > 100 |  | > 100 |  | > 100 |  | > 100 |  | > 100 |  | > 100 |  | > 100 | > 100 |  |
| Nc1nc2c(ncn2C2C=CC(CO)C2)c(=O)[nH]1 (stereo not given) |  | > 100 |  | > 100 |  |  |  | > 100 |  | > 100 |  | > 100 |  | > 100 |  |  |  | > 100 | > 100 |  |
| CO/N=C(\C)c1ccc(Nc2cc(-c3ccccc3)nc3ccc(OC)cc23)cc1 | 6.69 | > 100 | 10.2 | 28.8 |  |  |  |  | 1.77 | 3.31 | 7.81 | > 100 | 2.79 | 9.64 | 3.38 | 25.2 | 5.19 | > 100 |  |  |
| COC(=O)c1cccn1C(=O)n1cccc1 |  | > 100 |  | > 100 |  | > 100 |  | > 100 |  | > 100 |  | > 100 |  |  |  | > 100 |  | > 100 | > 100 |  |
| NCCCCCCCn1c2c(c3ccccc3c1=O)C(=O)c1ccccc1-2 | 0.478 | 2.59 | 2.1 | 6.34 | 1.38 | 2.87 |  |  | 1.45 | 2.77 | 2.34 | 6.58 | 1.09 | 2.62 |  |  | 1.29 | 2.73 | 4.1 | 1.86 |
| CC(C)(C)c1cc(-n2c(-c3ccc(Cl)cc3)nc3cc(C(=O)Nc4ccc(Cl)cc4)ccc32)n[nH]1 | 3.57 | > 100 | 9.03 | > 100 | 3.18 | > 100 | > 100 | > 100 |  |  | 6.11 | > 100 |  |  |  |  | 2.69 | > 100 | 23.2 | 3.63 |
| CC(=O)C1C(c2ccc(N(C)C)cc2)c2cc3c(cc2OC1(C)O)OCO3 (stereo not given) |  | > 100 |  |  |  | 58.2 |  |  |  | 93 |  | > 100 |  | 83.2 |  | > 100 |  | > 100 | > 100 |  |
| CCN(CC)c1ccc(C(O)C2=CC(=O)c3ccccc3C2=O)cc1 (stereo not given) | 10.8 | > 32.4 | > 100 | > 100 | 7.1 | > 100 | 0.694 | 5.26 | 0.914 | 2.88 | 1.27 | 3.1 |  |  | 0.44 | > 100 | 2.12 | 6.25 | 2.75 | 1.21 |
